Like-named read-outs stand apart in the source and are kept apart here.
Key:
[1] = tested on: tyrosine aminotransferase (TAT); assay: TAT induction in vitro; assay type: cell-based; conditions: for Emax: read-out: TAT eff
[2] = tested on: lipopolysaccharide (LPS)-initiated secretion of the cytokine IL-8 in the human THP-1 monocyte cell line; assay: Inhibition of LPS-initiated IL-8 secretion in THP-1 cells; assay type: cell-based; conditions: for IC50 / Emax: Homo sapiens; for IC50: read-out: IL8 IC50; for Emax: read-out: IL8 eff; for Diss. (TATEC50/IL8IC50): ratio TAT EC50 / IL8 IC50
[3] = prior-art compounds (WO2005/034939)
[4] = THP-1, prior-art compounds (WO2005/034939)
[5] = inventive stereoisomers, efficacy of TAT induction
[6] = inventive stereoisomers, in vitro TAT induction
[7] = THP-1, inventive stereoisomers, efficacy of IL-8 inhibition
[8] = inventive stereoisomers, LPS-initiated IL-8 secretion, THP-1 cells
[9] = inventive stereoisomers, in vitro TAT induction, cells printed in μM

Row | Compound | EC50 [1, 3] [µM] | IC50 [2, 4] [nM] | EC50 [1, 6] [µM] | IC50 [2, 8] [nM] | EC50 [1, 9] [µM] | Emax [1, 3] [%] | Emax [2, 4] [%] | Diss. (TATEC50/IL8IC50) [2, 3] | Emax [1, 5] [%] | Emax [2, 7] [%] | Diss. (TATEC50/IL8IC50) ([2]; inventive stereoisomers)
1 | Cc1ncc2c(NC3c4cc(Cl)c(F)c(O)c4C(C)(C)CC3(O)C(F)(F)F)cc(F)c(F)c2n1 (centres unmarked) [reference compound] | 0.0042 | 31 | – | – | – | 100 | 96 | 0.14 | – | – | –
2 | CCC1CC(O)(C(F)(F)F)C(Nc2cccc3[nH]c(=O)ccc23)c2cc(F)cc(O)c21 (centres unmarked) [Example 75, 5-{[4-Ethyl-7-fluoro-2,5-dihydroxy-2-(trifluoromethyl)-1,2,3,4-tetrahydronaphthalen-1-yl]amino}quinolin-2(1H)-one] | – | – | 0.12 | 7.1 | – | – | – | – | 89 | 68 | 16.9
3 | CC1(C)CC(O)(C(F)(F)F)C(Nc2cc(F)cc3[nH]ncc23)c2ccc(F)c(O)c21 (centres unmarked) [reference compound] | 0.0043 | 20 | – | – | – | 100 | 88 | 0.22 | – | – | –
4 | Cc1ncc2c(NC3c4cc(C)c(F)c(O)c4C(C)(C)CC3(O)C(F)(F)F)ccc(F)c2n1 (centres unmarked) [reference compound] | 0.0065 | 40 | – | – | – | 100 | 79 | 0.16 | – | – | –
5 | CC[C@H]1C[C@](O)(C(F)(F)F)[C@@H](Nc2cc(F)cc3[nH]c(=O)ccc23)c2ccc(Cl)c(O)c21 (stereo in doubt) [Example 101, 5-{[(1α,2α,4α)-6-Chloro-2,5-Dihydroxy-4-ethyl-2-(trifluoromethyl)-1,2,3,4-tetrahydronaphthalen-1-yl]amino}-7-fluoro-1H-quinolin-2-one] | – | – | 0.074 | 1.8 | – | – | – | – | 97 | 92 | 41
6 | Cc1ccc2c(NC3c4ccc(F)c(O)c4C(C(C)C)CC3(O)C(F)(F)F)cccc2n1 (centres unmarked) [Example 65, 2-Fluoro-5-[(2-methylquinolin-5-yl)amino]-8-(Prop-2-yl)-6-(trifluoromethyl)-5,6,7,8-tetrahydronaphthalene-1,6-diol] | – | – | – | 38 | 1 | – | – | – | 73 | 58 | 26.3
7 | CC[C@H]1C[C@](O)(C(F)(F)F)[C@@H](Nc2cccc3[nH]c(=O)ccc23)c2ccc(F)c(O)c21 (stereo in doubt) [Example 43, 5-{[(1α,2α,4α)-4-Ethyl-6-fluoro-2,5-dihydroxy-2-(trifluoromethyl)-1,2,3,4-tetrahydronaphthalen-1-yl]amino}quinolin-2(1H)-one] | – | – | 0.043 | 12 | – | – | – | – | 100 | 88 | 3.6
8 | CC1(C)CC(O)(C(F)(F)F)C(Nc2cccc3[nH]c(=O)ccc23)c2ccc(F)c(O)c21 (centres unmarked) [reference compound] | 0.0038 | 14 | – | – | – | 92 | 68 | 0.27 | – | – | –
9 | CC[C@@H]1C[C@](O)(C(F)(F)F)[C@@H](Nc2cccc3[nH]c(=O)ccc23)c2cc(F)c(F)c(O)c21 [Example 54, 5-{[(1α,2α,4β)-4-ethyl-6,7-difluoro-2,5-dihydroxy-2-(trifluoromethyl)-1,2,3,4-tetrahydronaphthalen-1-yl]amino}quinolin-2(1H)-one] | – | – | 0.49 | 5.7 | – | – | – | – | 76 | 78 | 86
10 | CCC1CC(O)(C(F)(F)F)C(Nc2cccc3nc(C)ccc23)c2ccc(F)c(O)c21 (centres unmarked) [reference compound] | 0.14 | 220 | – | – | – | 88 | 69 | 0.64 | – | – | –
11 | Cc1ccc2c(N[C@H]3c4ccc(F)c(O)c4[C@H](C)C[C@]3(O)C(F)(F)F)cccc2n1 [Example 1] | – | – | – | 22 | 1 | – | – | – | 62 | 79 | 45.5
12 | Cc1ncc2c(NC3c4ccc(Cl)c(O)c4C(C)(C)CC3(O)C(F)(F)F)ccc(F)c2n1 (centres unmarked) [reference compound] | 0.003 | 22 | – | – | – | 98 | 73 | 0.14 | – | – | –

Continued, in another order:

Row | EC50 [1, 3] [µM] | IC50 [2, 4] [nM] | EC50 [1, 6] [µM] | IC50 [2, 8] [nM] | EC50 [1, 9] [µM] | Compound | Emax [1, 3] [%] | Emax [2, 4] [%] | Diss. (TATEC50/IL8IC50) [2, 3] | Emax [1, 5] [%] | Emax [2, 7] [%] | Diss. (TATEC50/IL8IC50) ([2]; inventive stereoisomers)
13 | – | – | 0.017 | 6.6 | – | CC[C@@H]1C[C@](O)(C(F)(F)F)[C@@H](Nc2cc(F)cc3nc(C)ncc23)c2ccc(F)c(O)c21 [Example 30A, (5S,6R,8R)-8-Ethyl-2-fluoro-5-[(7-fluoro-2-methylquinazolin-5-yl)amino]-6-(trifluoromethyl)-5,6,7,8-tetrahydronaphthalene-1,6-diol] | – | – | – | 95 | 89 | 2.8
14 | – | – | 0.3 | 3.7 | – | CC[C@@H]1C[C@](O)(C(F)(F)F)[C@@H](Nc2cccc3c(=O)[nH]ccc23)c2cc(Cl)c(C)c(O)c21 [Example 121B, 5-{[(1S,2R,4R)-7-chloro-2,5-Dihydroxy-6-methyl-4-ethyl-2-(trifluoromethyl)-1,2,3,4-tetrahydronaphthalen-1-yl]amino}-2H-quinolin-1-one] | – | – | – | 99 | 88 | 81
15 | – | – | 0.12 | 16 | – | CC[C@@H]1C[C@](O)(C(F)(F)F)[C@@H](Nc2cccc3nc(C)ncc23)c2ccc(F)c(O)c21 [Example 29A, (5α,6α,8β)-8-Ethyl-2-fluoro-5-[(2-methylquinazolin-5-yl)amino]-6-(trifluoromethyl)-5,6,7,8-tetrahydronaphthalene-1,6-diol] | – | – | – | 95 | 77 | 7.5
16 | – | – | 0.15 | 13 | – | CC[C@@H]1C[C@](O)(C(F)(F)F)[C@@H](Nc2cc(F)cc3nc(C)ncc23)c2cc(F)c(F)c(O)c21 [Example 51A, (5α,6α,8β)-8-Ethyl-2,3-difluoro-5-[(7-fluoro-2-methylquinazolin-5-yl)amino]-6-(trifluoromethyl)-5,6,7,8-tetrahydronaphthalene-1,6-diol] | – | – | – | 81 | 72 | 11.5
